≈ marks a conversion by molar mass, not a printed value.

As a reminder, the MIC is the lowest concentration that inhibits growth of the organism. The low end stands for inhibition by little substance, the high end for a need for much substance.

Holding throughout (assay type): functional
Assay [1] has as its system Klebsiella pneumoniae. The experiment in a line: Antibacterial activity against Klebsiella pneumoniae NK29 assessed as inhibition zone diameter by CLSI disk diffusion confirmatory test. (Agar diffusion results depend on both activity and mobility in agar.)
In assay [2] the test system is Escherichia coli. The experiment in a line: Antibacterial activity against plasmid pK29 transconjugant Escherichia coli J53 by Etest.
For assay [3], the system named is Escherichia coli. The experiment in a line: Antibacterial activity against Escherichia coli J53 by Etest.
Assay [4] concerns Escherichia coli. The experiment in a line: Antibacterial activity against plasmid pK29 transconjugant Escherichia coli J53 assessed as inhibition zone diameter by CLSI disk diffusion confirmatory test.
For assay [5], the system named is Escherichia coli. The experiment in a line: Antibacterial activity against Escherichia coli J53 assessed as inhibition zone diameter by CLSI disk diffusion confirmatory test.
The test system of assay [6] is Klebsiella pneumoniae. The experiment in a line: Antibacterial activity against Klebsiella pneumoniae NK29 by Etest.
The subject of assay [7] is Klebsiella pneumoniae. The experiment in a line: Antibacterial activity against Klebsiella pneumoniae NK29 by broth microdilution test.
For assay [8], the system named is Escherichia coli. Kind of assay: Antibacterial activity against plasmid pK29 transconjugant Escherichia coli J53 by broth microdilution test. (In general: In broth dilution the organism is exposed to a series of concentrations in liquid medium.)
The subject of assay [9] is Escherichia coli. Kind of assay: Antibacterial activity against Escherichia coli J53 by broth microdilution test.

As to `CO/N=C(\C(=O)N[C@@H]1C(=O)N2C(C(=O)O)=C(COC(C)=O)CS[C@H]12)c1csc(N)n1` [CEFOTAXIME], the “inhibition zone (IZ)” value in assay [1] turned out to be 13 mm; in assay [4] it was 16 mm; in assay [5], 31 mm. Besides, the minimal inhibitory concentration (MIC) worked out at 24 µg/mL (≈ 52.7 µM) in [2], 0.064 µg/mL (≈ 0.141 µM) in assay [3] and 32 µg/mL (≈ 70.3 µM) in [6].
On to `CO/N=C(\C(=O)N[C@@H]1C(=O)N2C(C(=O)O)=C(CSc3nc(=O)c(O)nn3C)CS[C@H]12)c1csc(N)n1` [CEFTRIAXONE], for which the figures for the MIC in assay [2], in assay [3] and in [6] were 16 µg/mL (≈ 28.9 µM), 0.19 µg/mL (≈ 0.343 µM) and 24 µg/mL (≈ 43.3 µM), respectively.
Turning to `NC[C@H]1O[C@H](O[C@H]2[C@H](O)[C@@H](O[C@H]3O[C@H](CO)[C@@H](O)[C@H](N)[C@H]3O)[C@H](N)C[C@@H]2N)[C@H](O)[C@@H](O)[C@@H]1O` [KANAMYCIN], the minimal inhibitory concentration (MIC) in assay [7] was 32 µg/mL (≈ 66 µM); in assay [8] it was 32 µg/mL (≈ 66 µM); in assay [9] it was 8 µg/mL (≈ 16.5 µM).
`O=C(N[C@H](CO)[C@H](O)c1ccc([N+](=O)[O-])cc1)C(Cl)Cl` [CHLORAMPHENICOL]: the MIC in assay [2] was determined as 96 µg/mL (≈ 297 µM); in [3], 4 µg/mL (≈ 12.4 µM); in [6], 96 µg/mL (≈ 297 µM).
For `C[C@H]1[C@H](NC(=O)/C(=N\OC(C)(C)C(=O)O)c2csc(N)n2)C(=O)N1S(=O)(=O)O` [AZTREONAM], the MIC in assay [2] amounted to 2 µg/mL (≈ 4.59 µM); in assay [6] it was 4 µg/mL (≈ 9.19 µM).
As to `CC(C)(O/N=C(\C(=O)N[C@@H]1C(=O)N2C(C(=O)[O-])=C(C[n+]3ccccc3)CS[C@H]12)c1csc(N)n1)C(=O)O` [CEFTAZIDIME], the “inhibition zone (IZ)” value is given as 17 mm in assay [1], 27 mm in assay [4] and 33 mm in assay [5]. Also, the MIC in [2] came to 1.5 µg/mL (≈ 2.74 µM); in [3], 0.19 µg/mL (≈ 0.348 µM); in [6], 16 µg/mL (≈ 29.3 µM).
Consider `CO[C@@]1(NC(=O)Cc2cccs2)C(=O)N2C(C(=O)O)=C(COC(N)=O)CS[C@@H]21` [CEFOXITIN], for which the values for the MIC in [2], in assay [3] and in [6] were greater than 256 µg/mL, 4 µg/mL (≈ 9.36 µM) and greater than 256 µg/mL, respectively.
As for `O=C(O)c1cn(C2CC2)c2cc(N3CCNCC3)c(F)cc2c1=O` [CIPROFLOXACIN], the MIC in [6] was 0.047 µg/mL (≈ 0.142 µM).
`Cc1cc(NS(=O)(=O)c2ccc(N)cc2)no1` [SULFAMETHOXAZOLE]: the MIC in [7] is greater than 512 µg/mL; in assay [8] it was greater than 512 µg/mL; in [9], no more than 64 µg/mL.
As to `C[C@@H](O)[C@H]1C(=O)N2C(C(=O)O)=C(SCCNC=N)C[C@H]12` [IMIPENEM ANHYDROUS], the MIC in assay [2] and in assay [6] was 0.25 µg/mL (≈ 0.835 µM) each time.
As to `CO/N=C(\C(=O)N[C@@H]1C(=O)N2C(C(=O)[O-])=C(C[N+]3(C)CCCC3)CS[C@H]12)c1csc(N)n1` [CEFEPIME], the figures for the MIC in assay [2], in assay [3] and in [6] were 1 µg/mL (≈ 2.08 µM), 0.094 µg/mL (≈ 0.196 µM) and 2 µg/mL (≈ 4.16 µM), respectively.
The matching figures for `CN(C)[C@@H]1C(O)=C(C(N)=O)C(=O)[C@@]2(O)C(O)=C3C(=O)c4c(O)cccc4[C@@](C)(O)[C@H]3C[C@@H]12` [TETRACYCLINE]: 2 µg/mL (≈ 4.5 µM), 2 µg/mL (≈ 4.5 µM) and 8 µg/mL (≈ 18 µM).

Values taken from ChEMBL document CHEMBL1155164, “Sequencing and comparative genomic analysis of pK29, a 269-kilobase conjugative plasmid encoding CMY-8 and CTX-M-3 beta-lactamases in Klebsiella pneumoniae” (2007).
